Assay results taken from publication PMC6273861, “Synthesis and Determination of Physicochemical Properties of New 3-(4-Arylpiperazin-1-yl)-2-hydroxypropyl 4-Alkoxyethoxybenzoates” (Molecules, 2016).

Key:
[1] = Lipophilicity index (log kw7.4, log kw) by RP-HPLC; type: physicochemical; settings: for log kw7.4: RP-HPLC, ZORBAX Extend-C18, pH 7.4, extrapolated to 100% water, mean and standard deviation; for log kw: neutral form, calculated from log kw7.4 and pKa by Equation (2)
Protocol: The lipophilicity indexes log kw7.4 were measured by means of RP-HPLC method. The log kw values were then calculated according to Equation (2) given in Section 3.3. The correlation coefficients were greater than 0.999 with covariance equal or less than 0.03 units (n = 2). The log kw^7.4 values of synthetized compounds were measured by a Dionex Ultimate 3000 (Thermo Fisher Scientific) HPLC system controlled through the Chromeleon® Chromatography Data System (version 7.2). The separation was performed on ZORBAX Extend-C18 (3.5 µm, 3 × 150 mm) column (Agilent Technologies). Mobile phase consists of 0.02 M […] with addition of 0.15% of n-decylamine (pH = 7.4; constituent A) and methanol to which 0.25% of n-octanol was added (constituent B). The total flow rate was 0.4 mL/min, the injection volume was 1 μL, and the column temperature was maintained at 25 °C. The detection wavelength of 254 nm was chosen. One milligram of the sample was dissolved in 1 mL of methanol and diluted to the concentration 0.1 mg/mL with 50% methanol. Retention factors of the compound were measured under isocratic conditions in the range 20:80–50:50 (A:B; v/v), 5 values for each factor in duplicate. Linear regression analysis was performed and log kw7.4 values were calculated according to Equation (1). (1) logk=−Sϕ+logkw where log k represents a logarithm of individual isocratic factor, φ is the organic phase concentration, and S is a constant derived by linear regression analysis. The retention factor corresponding to the neutral form (log kw) was estimated from the apparent log kw7.4 by using Equation (2). (2) logkw=logkwapp+log(1+10^pKa−pH)

[2] = Determination of dissociation constants (pKa) by capillary zone electrophoresis; type: physicochemical; settings: 25 °C, BGE pH 3.9 to 9.2, mean and standard deviation of four measurements, read-out: pKa (exp.)
Protocol: The dissociation constants (pKa) of studied compounds were determined by means of CE. The measured values and values predicted by chemical software (ACD Percepta ver. 2012, Advanced Chemistry Development, Toronto, ON, Canada; MarvinSketch 6.0.6., ChemAxon Kft., Budapest, Hungary) are shown in Table 1. The correlation coefficients of the experimentally determined values were greater than 0.999 and standard deviation equal or less than 0.02 units (n = 4). The experimental values are in the range 6.35–6.92 and the highest values were recorded for the 1-(2-methoxyphenylpiperazine) derivatives 7b, 8b, 9b. The clinically used β-blockers are usually stronger bases, the values of studied compounds are lower due to the presence of piperazine moiety instead of secondary amine group.
The CE experiments were carried out with an Agilent 3D CE (Agilent Technologies) capillary electrophoresis system equipped with an autosampler, automatic injector, photodiode array detector, and an air cooling unit for the capillary. The instrument control and analysis were performed with 3D-CE ChemStation software (Agilent Technologies). Uncoated fused-silica capillary (Agilent Technologies) of 50 µm internal diameter, total length of 33.0 cm and effective length (to the detector) of 24.5 cm was used. The capillary cassette temperature was maintained at 25 °C with air cooling. Three milligrams of the sample were dissolved in 1 mL of 50% methanol and 10 times diluted with appropriate background electrolyte before analysis. Samples were injected hydrodynamically at 40 mbar pressure for 4.0 s. Running voltage was 15 kV of positive polarity. UV detection was performed at 254 nm. As a marker of electroosmotic flow, mesityl oxide was used. The effective mobilities were recorded for BGE pH values in the range of 3.9 to 9.2 (ionic strength equal to 10 mM), 4 runs at 10 different buffer pH values. The effective mobilities (μeff) were calculated according to Equation (3). (3) μeff=LtotLeff/U(1/tmig−1/tEOF) where tmig is the migration time of the analyte and tEOF is the migration time of a neutral marker compound that is of the same velocity as the electroosmotic flow (EOF). Leff is distance from the injection end of capillary to the detector and Ltot is the total length of the capillary over which the voltage U was applied. SigmaPlot for Windows version 11.0 (Systat Software GmbH, Erkrath, Germany) was employed for the nonlinear regression analysis of µeff/pH relationship having characteristic sigmoidal shape with inflection point indicating pKa value.
The pH measurements were taken with a combination glass electrode (HI 1332B, HANNA Instruments, Woonsocket, RI, USA), using a Thermo Orion 370 PerpHect® pH meter (ThermoFisher Scientific).

log kw7.4 [1]	log kw [1]	pKa [2]	melting point [°C]	SMILES
4.11 ± 0.02	4.20 ± 0.09	6.79 ± 0.02	143 to 146	CCCOCCOc1ccc(C(=O)OCC(O)CN2CCN(c3ccccc3OC)CC2)cc1.Cl.Cl (stereo not drawn) [9b, 1-{2-Hydroxy-3-[(4-propoxyethoxybenzoyl)oxy]propyl}-4-(2-methoxyphenyl)piperazinediium dichloride]
3.78 ± 0.02	3.89 ± 0.08	6.88 ± 0.02	178 to 180	C=CCOCCOc1ccc(C(=O)OCC(O)CN2CCN(c3ccccc3OC)CC2)cc1.Cl.Cl (stereo not drawn) [7b, 1-{3-[(4-Allyloxyethoxybenzoyl)oxy]-2-hydroxypropyl}-4-(2-methoxyphenyl)piperazinediium dichloride]
3.67 ± 0.02	3.71 ± 0.08	6.49 ± 0.02	170 to 173	C=CCOCCOc1ccc(C(=O)OCC(O)CN2CCN(c3ccc(OC)cc3)CC2)cc1.Cl.Cl (stereo not drawn) [7c, 1-{3-[(4-Allyloxyethoxybenzoyl)oxy]-2-hydroxypropyl}-4-(4-methoxyphenyl)piperazinediium dichloride]
4.21 ± 0.01	4.25 ± 0.05	6.49 ± 0.01	200 to 202	CC(C)OCCOc1ccc(C(=O)OCC(O)CN2CCN(c3ccccc3)CC2)cc1.Cl.Cl (stereo not drawn) [8a, 1-{2-Hydroxy-3-[(4-isopropoxyethoxybenzoyl)oxy]propyl}-4-phenylpiperazinediium dichloride]
3.99 ± 0.02	4.03 ± 0.09	6.39 ± 0.01	173 to 175	CCCOCCOc1ccc(C(=O)OCC(O)CN2CCN(c3ccc(OC)cc3)CC2)cc1.Cl.Cl (stereo not drawn) [9c, 1-{2-Hydroxy-3-[(4-propoxyethoxybenzoyl)oxy]propyl}-4-(4-methoxyphenyl)piperazinediium dichloride]
4.03 ± 0.02	4.15 ± 0.07	6.92 ± 0.01	154 to 156	COc1ccccc1N1CCN(CC(O)COC(=O)c2ccc(OCCOC(C)C)cc2)CC1.Cl.Cl (stereo not drawn) [8b, 1-{2-Hydroxy-3-[(4-isopropoxyethoxybenzoyl)oxy]propyl}-4-(2-methoxyphenyl)piperazinediium dichloride]
3.90 ± 0.02	3.93 ± 0.06	6.35 ± 0.02	193 to 195	COc1ccc(N2CCN(CC(O)COC(=O)c3ccc(OCCOC(C)C)cc3)CC2)cc1.Cl.Cl (stereo not drawn) [8c, 1-{2-Hydroxy-3-[(4-isopropoxyethoxybenzoyl)oxy]propyl}-4-(4-methoxyphenyl)piperazinediium dichloride]
3.97 ± 0.03	4.01 ± 0.09	6.47 ± 0.02	185 to 187	C=CCOCCOc1ccc(C(=O)OCC(O)CN2CCN(c3ccccc3)CC2)cc1.Cl.Cl (stereo not drawn) [7a, 1-{3-[(4-Allyloxyethoxybenzoyl)oxy]-2-hydroxypropyl}-4-phenylpiperazinediium dichloride]
4.29 ± 0.03	4.34 ± 0.10	6.5 ± 0.02	197 to 199	CCCOCCOc1ccc(C(=O)OCC(O)CN2CCN(c3ccccc3)CC2)cc1.Cl.Cl (stereo not drawn) [9a, 1-{2-Hydroxy-3-[(4-propoxyethoxybenzoyl)oxy]propyl}-4-phenylpiperazinediium dichloride]
